Literature values in PubChem BioAssay AID1259409 (Chemical Carcinogenesis Research Information System (CCRIS), 2018).

System: rodent chemically induced tumor inhibition, incidence and multiplicity
Assay: CCRIS tumor inhibitor studies
Settings: Route [Inhibitor]: ORAL, Species: HAMSTER, Promoter: NONE USED

## CC1=C(/C=C/C(C)=C/C=C/C(C)=C\C(=O)O)C(C)(C)CCC1
Carcinogen: N-NITROBIS(2-OXOPROPYL)AMINE, 60559-38-4, Dose [Inhibitor]: 0.4 OR 0.8 MMOL/KG DIET DAILY STARTING 1 WK AFTER CARCINOGEN TREATMENT AND CONTINUING THROUGH THE END OF THE STUDY (STUD, Strain/Sex: SYRIAN/FEMALE, Target Tissue: Type of Lesion: PANCREAS: DUCTULAR ADENOMA, Dose [Carcinogen]: 40 MG/KG BW ONCE
  tumour outcome (control, treated, inhibition, significance): 12/20 (60%), 7/14 (50%), 17%, not significant
Carcinogen: N-NITROBIS(2-OXOPROPYL)AMINE, 60559-38-4, Dose [Inhibitor]: 0.4 OR 0.8 MMOL/KG DIET DAILY STARTING 1 WK AFTER CARCINOGEN TREATMENT AND CONTINUING THROUGH THE END OF THE STUDY (STUD, Strain/Sex: SYRIAN/FEMALE, Target Tissue: Type of Lesion: PANCREAS: DUCTULAR CARCINOMA, Dose [Carcinogen]: 10 MG/KG BW ONCE
  tumour outcome (control, treated, inhibition, significance): 6/23 (27%), 3/23 (13%), 52%, not significant
Carcinogen: N-NITROBIS(2-OXOPROPYL)AMINE, 60559-38-4, Dose [Inhibitor]: 0.4 OR 0.8 MMOL/KG DIET DAILY STARTING 1 WK AFTER CARCINOGEN TREATMENT AND CONTINUING THROUGH THE END OF THE STUDY (STUD, Strain/Sex: SYRIAN/FEMALE, Target Tissue: Type of Lesion: PANCREAS: DUCTULAR CARCINOMA, Dose [Carcinogen]: 40 MG/KG BW ONCE
  tumour outcome (control, treated, inhibition, significance): 6/20 (30%), 9/14 (64%), -113%, not significant
Carcinogen: N-NITROBIS(2-OXOPROPYL)AMINE, 60559-38-4, Dose [Inhibitor]: 0.4 OR 0.8 MMOL/KG DIET DAILY STARTING 1 WK AFTER CARCINOGEN TREATMENT AND CONTINUING THROUGH THE END OF THE STUDY (STUD, Strain/Sex: SYRIAN/MALE, Target Tissue: Type of Lesion: PANCREAS: DUCTULAR CARCINOMA, Dose [Carcinogen]: 40 MG/KG BW ONCE
  tumour outcome (control, treated, inhibition, significance): 5/24 (21%), 9/24 (38%), -81%, not significant
Carcinogen: N-NITROBIS(2-OXOPROPYL)AMINE, 60559-38-4, Dose [Inhibitor]: 0.4 OR 0.8 MMOL/KG/D IN DIET STARTING 1 WK AFTER CARCINOGEN TREATMENT AND CONTINUING THROUGH THE END OF THE STUDY (STUDY, Strain/Sex: SYRIAN/MALE, Target Tissue: Type of Lesion: LIVER: BENIGN TUMOR, Dose [Carcinogen]: 40 MG/KG BW ONCE
  tumour outcome (control, treated, inhibition, significance): 21%, 48%, -129%, not significant
Carcinogen: N-NITROBIS(2-OXOPROPYL)AMINE, 60559-38-4, Dose [Inhibitor]: 0.4 OR 0.8 MMOL/KG/D IN DIET STARTING 1 WK AFTER CARCINOGEN TREATMENT AND CONTINUING THROUGH THE END OF THE STUDY (STUDY, Strain/Sex: SYRIAN/MALE, Target Tissue: Type of Lesion: PANCREAS: DUCTULAR ADENOMA, Dose [Carcinogen]: 10 MG/KG BW ONCE
  tumour outcome (control, treated, inhibition, significance): 3/22 (14%), 20/36 (56%), -300%, p<0.05
Carcinogen: N-NITROBIS(2-OXOPROPYL)AMINE, 60559-38-4, Dose [Inhibitor]: 0.4 OR 0.8 MMOL/KG/D IN DIET STARTING 1 WK AFTER CARCINOGEN TREATMENT AND CONTINUING THROUGH THE END OF THE STUDY (STUDY, Strain/Sex: SYRIAN/MALE, Target Tissue: Type of Lesion: PANCREAS: DUCTULAR CARCINOMA, Dose [Carcinogen]: 10 MG/KG BW ONCE
  tumour outcome (control, treated, inhibition, significance): 4/22 (18%), 8/36 (22%), -22%, not significant
Carcinogen: N-NITROBIS(2-OXOPROPYL)AMINE, 60559-38-4, Dose [Inhibitor]: 0.5 OR 1.0 MMOL/KG/D IN DIET STARTING 1 WK AFTER CARCINOGEN TREATMENT AND CONTINUING THROUGH THE END OF THE STUDY (STUDY, Strain/Sex: SYRIAN/FEMALE, Target Tissue: Type of Lesion: PANCREAS: DUCTULAR ADENOMA, Dose [Carcinogen]: 10 MG/KG BW ONCE
  tumour outcome (control, treated, inhibition, significance): 5/23 (22%), 9/23 (39%), -77%, not significant
Carcinogen: N-NITROBIS(2-OXOPROPYL)AMINE, 60559-38-4, Dose [Inhibitor]: 0.5 OR 1.0 MMOL/KG/D IN DIET STARTING 1 WK AFTER CARCINOGEN TREATMENT AND CONTINUING THROUGH THE END OF THE STUDY (STUDY, Strain/Sex: SYRIAN/FEMALE, Target Tissue: Type of Lesion: PANCREAS: DUCTULAR CARCINOMA, Dose [Carcinogen]: 10 MG/KG BW ONCE
  tumour outcome (control, treated, inhibition, significance): 6/23 (27%), 3/23 (13%), 52%, not significant
Carcinogen: N-NITROSOBIS(2-OXYPROPYL)AMINE, 60599-38-4, Dose [Inhibitor]: 0.05, 0.1 OR 0.2 MILLIMOLAR/KG DIET FOR 32 WK STARTING 1 WK AFTER THE CARCINOGEN DOSE (STUDY DURATION: 33 WK), Strain/Sex: SYRIAN/FEMALE, Target Tissue: Type of Lesion: LUNG: ADENOMA, Dose [Carcinogen]: 40 MG/KG ONCE
  tumour outcome (control, treated, inhibition, significance): 3/10 (30%), 6/26 (23%), 23%, not significant
Carcinogen: N-NITROSOBIS(2-OXYPROPYL)AMINE, 60599-38-4, Dose [Inhibitor]: 0.05, 0.1 OR 0.2 MILLIMOLAR/KG DIET FOR 32 WK STARTING 1 WK AFTER THE CARCINOGEN DOSE (STUDY DURATION: 33 WK), Strain/Sex: SYRIAN/MALE, Target Tissue: Type of Lesion: COMMON DUCT: ADENOMA, Dose [Carcinogen]: 40 MG/KG ONCE
  tumour outcome (control, treated, inhibition, significance): 4/12 (33%), 17/29 (59%), -78%, not significant
Carcinogen: N-NITROSOBIS(2-OXYPROPYL)AMINE, 60599-38-4, Dose [Inhibitor]: 0.05, 0.1 OR 0.2 MILLIMOLAR/KG DIET FOR 32 WK STARTING 1 WK AFTER THE CARCINOGEN DOSE (STUDY DURATION: 33 WK), Strain/Sex: SYRIAN/MALE, Target Tissue: Type of Lesion: GALL BLADDER: ADENOMA, Dose [Carcinogen]: 40 MG/KG ONCE
  tumour outcome (control, treated, inhibition, significance): 3/12 (25%), 12/29 (41%), -64%, not significant
Carcinogen: N-NITROSOBIS(2-OXYPROPYL)AMINE, 60599-38-4, Dose [Inhibitor]: 0.05, 0.1 OR 0.2 MILLIMOLAR/KG DIET FOR 32 WK STARTING 1 WK AFTER THE CARCINOGEN DOSE (STUDY DURATION: 33 WK), Strain/Sex: SYRIAN/MALE, Target Tissue: Type of Lesion: LIVER: ADENOMA, Dose [Carcinogen]: 40 MG/KG ONCE
  tumour outcome (control, treated, inhibition, significance): 50%, 41%, 18%, not significant
Carcinogen: N-NITROSOBIS(2-OXYPROPYL)AMINE, 60599-38-4, Dose [Inhibitor]: 0.05, 0.1 OR 0.2 MILLIMOLAR/KG DIET FOR 32 WK STARTING 1 WK AFTER THE CARCINOGEN DOSE (STUDY DURATION: 33 WK), Strain/Sex: SYRIAN/MALE, Target Tissue: Type of Lesion: LUNG: ADENOMA, Dose [Carcinogen]: 40 MG/KG ONCE
  tumour outcome (control, treated, inhibition, significance): 1/12 (8%), 2/29 (3%), 63%, not significant
Carcinogen: N-NITROSOBIS(2-OXYPROPYL)AMINE, 60599-38-4, Dose [Inhibitor]: 0.05, 0.1 OR 0.2 MILLIMOLAR/KG DIET FOR 32 WK STARTING 1 WK AFTER THE CARCINOGENDOSE (STUDY DURATION: 33 WK), Strain/Sex: SYRIAN/FEMALE, Target Tissue: Type of Lesion: COMMON DUCT: ADENOMA, Dose [Carcinogen]: 40 MG/KG ONCE
  tumour outcome (control, treated, inhibition, significance): 4/10 (40%), 11/26 (42%), -5%, not significant
Carcinogen: N-NITROSOBIS(2-OXYPROPYL)AMINE, 60599-38-4, Dose [Inhibitor]: 0.05, 0.1 OR 0.2 MILLIMOLAR/KG DIET FOR 32 WK STARTING 1 WK AFTER THE CARCINOGENDOSE (STUDY DURATION: 33 WK), Strain/Sex: SYRIAN/FEMALE, Target Tissue: Type of Lesion: GALL BLADDER: ADENOMA, Dose [Carcinogen]: 40 MG/KG ONCE
  tumour outcome (control, treated, inhibition, significance): 6/10 (60%), 2/26 (18%), 70%, not significant
Carcinogen: N-NITROSOBIS(2-OXYPROPYL)AMINE, 60599-38-4, Dose [Inhibitor]: 0.05, 0.1 OR 0.2 MILLIMOLAR/KG DIET FOR 32 WK STARTING 1 WK AFTER THE CARCINOGENDOSE (STUDY DURATION: 33 WK), Strain/Sex: SYRIAN/FEMALE, Target Tissue: Type of Lesion: LIVER : ADENOMA, Dose [Carcinogen]: 40 MG/KG ONCE
  tumour outcome (control, treated, inhibition, significance): 6/10 (60%), 10/26 (39%), 35%, not significant
Carcinogen: N-NITROSOBIS(2-OXYPROPYL)AMINE, 60599-38-4, Dose [Inhibitor]: 0.05, 0.1 OR 0.2 MILLIMOLAR/KG DIET FOR 32 WK STARTING 1 WK AFTER THE CARCINOGENDOSE (STUDY DURATION: 33 WK), Strain/Sex: SYRIAN/FEMALE, Target Tissue: Type of Lesion: PANCREAS: ADENOMA, Dose [Carcinogen]: 40 MG/KG ONCE
  tumour outcome (control, treated, inhibition, significance): 10/10 (100%), 26/26 (100%), 0%, not significant
Carcinogen: N-NITROSOBIS(2-OXYPROPYL)AMINE, 60599-38-4, Dose [Inhibitor]: 0.05, 0.1 OR 0.2 MILLIMOLAR/KG DIET FOR 32 WK STARTING 1 WK AFTER THE CARCINOGENDOSE (STUDY DURATION: 33 WK), Strain/Sex: SYRIAN/FEMALE, Target Tissue: Type of Lesion: PANCREAS: CARCINOMA, Dose [Carcinogen]: 40 MG/KG ONCE
  tumour outcome (control, treated, inhibition, significance): 4/10 (40%), 14/26 (54%), -35%, not significant
Carcinogen: N-NITROSOBIS(2-OXYPROPYL)AMINE, 60599-38-4, Dose [Inhibitor]: 0.05, 0.1 OR 0.2 MILLIMOLAR/KG DIET FOR 32 WK STARTING 1 WK AFTER THE CARCINOGENDOSE (STUDY DURATION: 33 WK), Strain/Sex: SYRIAN/MALE, Target Tissue: Type of Lesion: PANCREAS: ADENOMA, Dose [Carcinogen]: 40 MG/KG ONCE
  tumour outcome (control, treated, inhibition, significance): 12/12 (100%), 29/29 (100%), 0%, not significant
Carcinogen: N-NITROSOBIS(2-OXYPROPYL)AMINE, 60599-38-4, Dose [Inhibitor]: 0.05, 0.1 OR 0.2 MILLIMOLAR/KG DIET FOR 32 WK STARTING 1 WK AFTER THE CARCINOGENDOSE (STUDY DURATION: 33 WK), Strain/Sex: SYRIAN/MALE, Target Tissue: Type of Lesion: PANCREAS: CARCINOMA, Dose [Carcinogen]: 40 MG/KG ONCE
  tumour outcome (control, treated, inhibition, significance): 6/12 (50%), 12/29 (41%), 18%, not significant
